target: T1, CCR2 receptor (Homo sapiens, UniProt P41597); assay: Inhibition of MCP-1 induced Ca-flux in human THP-1 cells; assay type: cell-based; conditions: inhibition of specific MCP-1 (10^-7 M hMCP-1) induced Ca2+ flux in human THP-1 cells; pIC50 = -log IC50 (molar)
T1 construct: host or cells: THP-1 human monocytic cell line
T1 sequence (P41597 1-360 isoform P41597-2): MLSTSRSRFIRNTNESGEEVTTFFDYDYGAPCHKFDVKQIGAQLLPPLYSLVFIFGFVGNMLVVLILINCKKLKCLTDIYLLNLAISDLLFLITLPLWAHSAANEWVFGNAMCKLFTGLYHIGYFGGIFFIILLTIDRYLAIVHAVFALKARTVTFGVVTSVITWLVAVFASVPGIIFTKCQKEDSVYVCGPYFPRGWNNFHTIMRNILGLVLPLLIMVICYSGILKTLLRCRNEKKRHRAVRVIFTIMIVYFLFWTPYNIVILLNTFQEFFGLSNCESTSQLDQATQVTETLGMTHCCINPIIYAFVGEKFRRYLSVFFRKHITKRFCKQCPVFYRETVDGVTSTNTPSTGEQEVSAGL
Protocol: C. Pharmacological Example Inhibition of MCP-1 Induced Ca-flux in Human THP-1 Cells
MCP-1 binding to the CCR2 receptor induces a rapid and transient intracellular release of Ca^2+ (secondary messenger) in several cell lines (Charo et al, PNAS 1994). Free Ca^2+ levels can be measured using a Ca^2+ sensitive dye. When the CCR2 receptor is blocked with a CCR2 receptor antagonist, the MCP-1 induced release of Ca^2+ is inhibited.
Human THP-1 cells (monocytic cell line, ATCC TIB-202) were cultured in RPMI 1640 medium supplemented with 10% fetal calf serum (FCS), 1% L-Glutamine, penicillin (50 U/ml) and streptomycin (50 μg/ml) (all GIBCO BRL, Gent). After centrifugation, cells were loaded for 30 minutes with the Ca^2+ sensitive fluorescent dye Fluo-3 AM (Molecular Probes, Leiden, Netherlands) (2 million cells/ml in RPMI medium containing 4 μM Fluo-3 AM, 20 mM HEPES, 0.1% Bovine Serum Albumin (BSA) and 5 mM probenecid). Excess dye was removed by 3-fold washing with buffer (5 mM HEPES, 140 mM NaCl, 1 mM MgCl2, 5 mM KCl, 10 mM glucose, 2.5 mM probenecid, 1.25 mM CaCl2, 0.1% BSA; all further incubations were done in this buffer). Cells were plated at a density of 150 000 cells/well in dark-wall 96-well plates (Costar, Cambridge, Mass.) and sedimented by centrifugation (1 minute). The cells were pre-incubated for 20 minutes with test compound. Then, 10^−7 M hMCP-1 (Bachem, Bubendorf, Switserland) was added. Changes in intracellular free Ca^2+ concentration were measured using the Fluorescent Imaging Plate Reader (FLIPR, Molecular Devices, Munchen, Germany). Fluorescence was recorded every second from 10 seconds before the addition of the MCP-1 till 2 minutes after the addition (first minute: 60 records with 1 second intervals, second minute 20 records with 3 second intervals).
The maximal fluorescence obtained during this time frame was used for further calculations.
Table 4 reports pIC50 values obtained in the above-described test for compounds of formula (I). pIC50 defines −log IC50 wherein IC50 is the molar concentration of the test compound which inhibits 50% of specific MCP-1 induced Ca^2+ flux.

IC50 [nM] | SMILES
2140 | COC(=O)c1c[nH]c(=S)n1C(c1ccc(Cl)c(Cl)c1)C1CC1 (stereo not drawn) [Compound 2]
27.9 | COC(=O)c1[nH]c(=S)n(C(c2ccc(Cl)c(Cl)c2)C2CC2)c1C(=O)OC (stereo not drawn) [Compound 4]
39.8 | CCC(c1ccc(Cl)c(Cl)c1)n1c(C#N)c(C(=O)OC)[nH]c1=S (stereo not drawn) [Compound 5]
700 | CCC(c1ccc(Cl)c(Cl)c1)n1c(C#N)cnc1S (stereo not drawn) [Compound 7]
35 | CCC(c1ccc(Cl)c(Cl)c1)n1c(C(N)=O)cnc1S (stereo not drawn) [Compound 8]
204 | CCC(c1ccc(F)c(C(F)(F)F)c1)n1c(C(N)=O)cnc1S (stereo not drawn) [Compound 10]
347 | CCOC(=O)c1cnc(S)n1C(CC)c1ccc(F)c(C(F)(F)F)c1 (stereo not drawn) [Compound 12]
191 | CCC(c1ccc(Cl)c(Cl)c1)n1c(C(=O)OC)cnc1S (stereo not drawn) [Compound 15]
1020 | CC[C@H](c1ccc(Cl)c(Cl)c1)n1c(C(=O)OC)cnc1S [Compound 16]
87.1 | CC[C@@H](c1ccc(Cl)c(Cl)c1)n1c(C(=O)OC)cnc1S [Compound 17]
120 | CCC(c1ccc(Cl)c(Cl)c1)n1c(S)nc(C(N)=O)c1C#N (stereo not drawn) [Compound 19]
56.9 | CCC(c1ccc(Cl)c(Cl)c1)n1c(S)nc(C(N)=O)c1C(N)=O (stereo not drawn) [Compound 20]
1020 | CCC(c1ccc(F)c(F)c1)n1c(C(=O)OC)cnc1S (stereo not drawn) [Compound 21]
891 | CCCC(c1cccc(Cl)c1)n1c(C(=O)OC)c[nH]c1=S (stereo not drawn) [Compound 24]
3550 | CCCC(c1ccc(Cl)cc1)n1c(C(=O)OC)c[nH]c1=S (stereo not drawn) [Compound 25]
3720 | COC(=O)c1c[nH]c(=S)n1C(C)c1ccc(Cl)cc1 (stereo not drawn) [Compound 31]
219 | CCC(c1ccc(Cl)c(Cl)c1)n1c(C(=O)NC)cnc1S (stereo not drawn) [Compound 34]
138 | CCCC(c1ccc(Cl)c(Cl)c1)n1c(C(=O)OC)cnc1S (stereo not drawn) [Compound 35]
2240 | CCC(c1ccc(F)c(F)c1)n1c(C(=O)NC)cnc1S (stereo not drawn) [Compound 36]
9.68 | CCC(c1ccc(Cl)c(Cl)c1)n1c(S)nc(C(=O)OC)c1C(=O)OC (stereo not drawn) [Compound 37]
1380 | CCC(c1ccc(Cl)c(Cl)c1)n1c(C(=O)O)c(C(=O)O)[nH]c1=S (stereo not drawn) [Compound 40]
3130 | CCCCNC(=O)c1cnc(S)n1C(CC)c1ccc(F)c(F)c1 (stereo not drawn) [Compound 44]
2480 | CCC(c1ccc(F)c(F)c1)n1c(C(=O)NCC(C)C)cnc1S (stereo not drawn) [Compound 45]
35.5 | COC(=O)c1[nH]c(=S)n(Cc2ccc(Cl)c(Cl)c2)c1C(=O)OC [Compound 47]
2290 | CCC(c1ccc(F)c(C(F)(F)F)c1)n1c(C(=O)NC)c[nH]c1=S (stereo not drawn) [Compound 49]
1780 | CCC(c1ccc(Cl)c(Cl)c1)n1cc(C(N)=O)[nH]c1=S (stereo not drawn) [Compound 51]
8130 | CCC(c1ccc(Cl)c(Cl)c1)n1cc(C(=O)NC)[nH]c1=S (stereo not drawn) [Compound 52]

IC50 [nM] | SMILES
1100 | CC(c1ccc(Cl)c(Cl)c1)n1c(C(N)=O)c[nH]c1=S (stereo not drawn) [Compound 54]
12.6 | COC(=O)c1[nH]c(=S)n(C(C)c2ccc(Cl)c(Cl)c2)c1C(=O)OC (stereo not drawn) [Compound 55]
203 | COC(=O)c1[nH]c(=S)n(C(c2ccccc2)c2ccc(Cl)c(Cl)c2)c1C(=O)OC (stereo not drawn) [Compound 56]
168 | CCC(c1ccc(Br)c(Br)c1)n1c(C(N)=O)c(C(N)=O)[nH]c1=S (stereo not drawn) [Compound 57]
43.4 | CCC(c1ccc(Cl)c(Cl)c1)n1c(C(N)=O)cnc1S (stereo not drawn) [Compound 59]
229 | CCC(c1ccc(F)c(C(F)(F)F)c1)n1c(C(=O)OCCO)cnc1S (stereo not drawn) [Compound 61]
1020 | CCC(c1ccc(F)c(C(F)(F)F)c1)n1c(C(=O)OCC(=O)N(CC)CC)c[nH]c1=S (stereo not drawn) [Compound 62]
1020 | CCC(c1ccc(Cl)c(Cl)c1)n1cc(C(=O)OCCO)[nH]c1=S (stereo not drawn) [Compound 63]
2340 | CCC(c1ccc(F)c(C(F)(F)F)c1)n1c(C(=O)O)c[nH]c1=S (stereo not drawn) [Compound 67]
841 | CCC(c1ccc(Cl)c(Cl)c1)n1c(S)nc(C(=O)O)c1C(=O)OC (stereo not drawn) [Compound 68]
394 | CCCC(c1ccc(Cl)c(Cl)c1)n1c(C(=O)NC)c(C(=O)NC)[nH]c1=S (stereo not drawn) [Compound 69]
257 | CCC(c1ccc(Cl)c(Cl)c1)n1c(C#N)c(C(=O)NC)[nH]c1=S (stereo not drawn) [Compound 70]
3390 | CCC(c1ccc(Br)c(Br)c1)n1c(C(=O)O)c[nH]c1=S (stereo not drawn) [Compound 74]
257 | CCC(c1ccc(Br)c(Br)c1)n1c(C(=O)OC)cnc1S (stereo not drawn) [Compound 76]
331 | O=c1[nH][nH]c(=O)c2c1[nH]c(=S)n2C(c1ccc(Cl)c(Cl)c1)C1CC1 (stereo not drawn) [Compound 77]
4790 | COC(=O)c1cnc(S)n1C(C)(C)c1ccc(Cl)c(Cl)c1 [Compound 80]
132 | CCC(c1ccc(Cl)c(Cl)c1)n1c(C(C)=O)c[nH]c1=S (stereo not drawn) [Compound 81]
174 | CCC(c1ccc(Cl)c(Cl)c1)n1c(S)nc(C(=O)O)c1C#N (stereo not drawn) [Compound 88]
8130 | CC(c1ccc(Cl)c(Cl)c1)n1cc(C(N)=O)[nH]c1=S (stereo not drawn) [Compound 91]
305 | COCC(c1ccc(Cl)c(Cl)c1)n1c(C(=O)OC)cnc1S (stereo not drawn) [Compound 94]
245 | CCC(c1ccc(Cl)c(Cl)c1)n1c(C(=O)NN)c[nH]c1=S (stereo not drawn) [Compound 95]
186 | CCC(c1ccc(Cl)c(Cl)c1)n1c(C(=O)OC)c(C(=O)NNC(C)=O)[nH]c1=S (stereo not drawn) [Compound 96]
2040 | CC(c1ccc(Cl)c(Cl)c1)n1c(C(N)=O)c(C(N)=O)[nH]c1=S (stereo not drawn) [Compound 98]
343 | CCC(c1ccc(C)c(C)c1)n1c(C(=O)OC)c(C(=O)OC)[nH]c1=S (stereo not drawn) [Compound 99]
85.7 | COCC(c1ccc(Cl)c(Cl)c1)n1c(C(N)=O)c[nH]c1=S (stereo not drawn) [Compound 104]
130 | CCC(c1ccc(Cl)c(Cl)c1)n1c(C(=O)NCCO)c[nH]c1=S (stereo not drawn) [Compound 105]

SMILES | IC50 [nM]
CCC(c1ccc(F)c(C(F)(F)F)c1)n1c(C(=O)OC)cnc1S (stereo not drawn) [Compound 1] | 933
CCC(c1ccc(F)c(C(F)(F)F)c1)n1c(S)nc(C(=O)OC)c1C(=O)OC (stereo not drawn) [Compound 3] | 17.4
CCC(c1ccc(Cl)c(Cl)c1)n1c(C(=O)OC)c(C)[nH]c1=S (stereo not drawn) [Compound 6] | 263
CCC(c1ccc(F)c(F)c1)n1c(C(N)=O)cnc1S (stereo not drawn) [Compound 9] | 465
CCC(c1ccc(Cl)c(Cl)c1)n1cc(C(=O)OC)nc1S (stereo not drawn) [Compound 14] | 355
CCC(c1ccc(Cl)c(Cl)c1)n1c(C(=O)O)cnc1S (stereo not drawn) [Compound 23] | 3310
COC(=O)c1cnc(S)n1C(C)c1ccc(Cl)c(Cl)c1 (stereo not drawn) [Compound 32] | 257
CCC(c1ccc(Cl)c(Cl)c1)n1c(C(=O)OC(C)C)cnc1S (stereo not drawn) [Compound 33] | 263
CCC(c1ccc(F)c(F)c1)n1c(S)nc(C(=O)OC)c1C(=O)OC (stereo not drawn) [Compound 39] | 7.24
CCC(c1ccc(C(F)(F)F)c(F)c1)n1c(C(=O)OC)cnc1S (stereo not drawn) [Compound 43] | 2000
CCC(c1ccc(C(F)(F)F)c(F)c1)n1c(S)nc(C(=O)OC)c1C(=O)OC (stereo not drawn) [Compound 48] | 89.1
COC(=O)c1[nH]c(=S)n(C(c2ccc(Cl)c(Cl)c2)C2CCCCC2)c1C(=O)OC (stereo not drawn) [Compound 73] | 440
CCOC(=O)c1c(C)[nH]c(=S)n1C(CC)c1ccc(Cl)c(Cl)c1 (stereo not drawn) [Compound 75] | 263
CCC(c1ccc(Cl)c(Cl)c1)n1c(S)nc(CO)c1C(=O)OC (stereo not drawn) [Compound 85] | 153
CCC(c1ccc(Cl)c(Cl)c1)n1c(S)nc(C(N)=O)c1C(=O)OC (stereo not drawn) [Compound 86] | 49.9
CCC(c1ccc(Cl)c(Cl)c1)n1c(S)nc(C(=O)NC)c1C(=O)OC (stereo not drawn) [Compound 87] | 33.1
CCC(c1ccc(Cl)c(Cl)c1)n1c(S)nc(COC)c1C(=O)OC (stereo not drawn) [Compound 89] | 107
COC(=O)c1c(C(N)=O)[nH]c(=S)n1C(C)c1ccc(Cl)c(Cl)c1 (stereo not drawn) [Compound 90] | 133
COCC(c1ccc(Cl)c(Cl)c1)n1c(C(=O)OC)c(C(=O)OC)[nH]c1=S (stereo not drawn) [Compound 100] | 32.4
